# Literature values as cited in PubChem BioAssay AID1259409 (Chemical Carcinogenesis Research Information System (CCRIS), 2018).
# Test system: rodent chemically induced tumor inhibition, incidence and multiplicity
# Assay: CCRIS tumor inhibitor studies
# Conditions: Species: MOUSE
smiles,measurement,setting,value
S=C=NCCc1ccccc1,"tumour outcome (control, treated, inhibition, significance)","Carcinogen: 4(METHYLNITROSAMINO)1-(3-PYRIDYL)-1-BUTANONE, 64091-91-4, Dose [Inhibitor]: 0, 5 UMOL IN 0.1 ML CORN OIL WITH 10% DMSO 2 HR PRIOR TO CARCINOGEN DOSE (STUDY DURATION: 16 WK), Route [Inhibitor]: GAVAGE, Strain/Sex: STRAIN-A/FEMALE, Target Tissue: Type of Lesion: LUNG: ADENOMA, Dose [Carcinogen]: 10 UMOL IN 0.1 ML SALINE ONCE, Promoter: NONE USED","100%, 100%, 0%, not significant"
same,"tumour outcome (control, treated, inhibition, significance)","Carcinogen: 4-(METHYLNITROSAMINO)-1-(3-PYRIDYL)-1-BUTANONE (NNK) [64091-91-4], Dose [Inhibitor]: 1.5 UM/G DIET, BEGINNING 13 WKS AFTER CARCINOGEN/PROMOTER TREATMENT (STUDY DURATION: 42 WK), Route [Inhibitor]: DIET, Strain/Sex: A/J/FEMALE, Target Tissue: Type of Lesion: LUNG: ADENOCARCINOMA, Dose [Carcinogen]: 3 µM WEEKLY FOR 8 DOSES, Promoter: BENZO[A]PYRENE [50-32-8]","42%, 35%, 17%, not significant"
same,"tumour outcome (control, treated, inhibition, significance)","Carcinogen: 4-(METHYLNITROSAMINO)-1-(3-PYRIDYL)-1-BUTANONE (NNK) [64091-91-4], Dose [Inhibitor]: 1.5 UM/G DIET, BEGINNING 13 WKS AFTER CARCINOGEN/PROMOTER TREATMENT (STUDY DURATION: 42 WK), Route [Inhibitor]: DIET, Strain/Sex: A/J/FEMALE, Target Tissue: Type of Lesion: LUNG: ADENOMA, Dose [Carcinogen]: 3 µM WEEKLY FOR 8 DOSES, Promoter: BENZO[A]PYRENE [50-32-8]","100%, 95%, 5%, not significant"
same,"tumour outcome (control, treated, inhibition, significance)","Carcinogen: 4-(METHYLNITROSAMINO)-1-(3-PYRIDYL)-1-BUTANONE (NNK) [64091-91-4], Dose [Inhibitor]: 3 UM/G DIET, BEGINNING 13 WKS AFTER CARCINOGEN/PROMOTER TREATMENT (STUDY DURATION: 42 WK), Route [Inhibitor]: DIET, Strain/Sex: A/J/FEMALE, Target Tissue: Type of Lesion: LUNG: ADENOCARCINOMA, Dose [Carcinogen]: 3 µM WEEKLY FOR 8 DOSES, Promoter: BENZO[A]PYRENE [50-32-8]","42%, 19%, 55%, p<0.05"
same,"tumour outcome (control, treated, inhibition, significance)","Carcinogen: 4-(METHYLNITROSAMINO)-1-(3-PYRIDYL)-1-BUTANONE [64091-91-4] (NNK), Dose [Inhibitor]: 3 UM/G DIET, BEGINNING 13 WKS AFTER CARCINOGEN/PROMOTER TREATMENT (STUDY DURATION: 42 WK), Route [Inhibitor]: DIET, Strain/Sex: A/J/FEMALE, Target Tissue: Type of Lesion: LUNG: ADENOMA, Dose [Carcinogen]: 3 µM WEEKLY FOR 8 DOSES, Promoter: BENZO[A]PYRENE [50-32-8]","100%, 100%, 0%, not significant"
same,"tumour outcome (control, treated, inhibition, significance)","Carcinogen: 4-(METHYLNITROSAMINO)-1-(3-PYRIDYL)-1-BUTANONE [64091-91-4], BENZO[A]PYRENE [50-32-8], Dose [Inhibitor]: 0.3 UMOL/G IN DIET FOR 10 WK BEGINNING 1 WK PRIOR TO FIRST CARCINOGEN DOSE (STUDY DURATION: 28 WK), Route [Inhibitor]: ORAL, Strain/Sex: A/J/FEMALE, Target Tissue: Type of Lesion: LUNG: TUMOR, Dose [Carcinogen]: 3 UMOL BAP + 3 UMOL NNK IN 0.1 ML COTTONSEED OIL 1X/WK FOR 8 WK (STUDY DURATION: 28 WK), Promoter: NONE","100%, 100%, 0%, not calculated"
same,"tumour outcome (control, treated, inhibition, significance)","Carcinogen: 4-(METHYLNITROSAMINO)-1-(3-PYRIDYL)-1-BUTANONE [64091-91-4], BENZO[A]PYRENE [50-32-8], Dose [Inhibitor]: 1 UMOL/G IN DIET FOR 10 WK BEGINNING 1 WK PRIOR TO FIRST CARCINOGEN DOSE (STUDY DURATION: 28 WK), Route [Inhibitor]: ORAL, Strain/Sex: A/J/FEMALE, Target Tissue: Type of Lesion: LUNG: TUMOR, Dose [Carcinogen]: 3 UMOL BAP + 3 UMOL NNK IN 0.1 ML COTTONSEED OIL 1X/WK FOR 8 WK (STUDY DURATION: 28 WK), Promoter: NONE","100%, 100%, 0%, not calculated"
same,"tumour outcome (control, treated, inhibition, significance)","Carcinogen: 4-(METHYLNITROSAMINO)-1-(3-PYRIDYL)-1-BUTANONE [64091-91-4], BENZO[A]PYRENE [50-32-8], Dose [Inhibitor]: 3 UMOL/G IN DIET FOR 10 WK BEGINNING 1 WK PRIOR TO FIRST CARCINOGEN DOSE (STUDY DURATION: 28 WK), Route [Inhibitor]: ORAL, Strain/Sex: A/J/FEMALE, Target Tissue: Type of Lesion: LUNG: TUMOR, Dose [Carcinogen]: 3 UMOL BAP + 3 UMOL NNK IN 0.1 ML COTTONSEED OIL 1X/WK FOR 8 WK (STUDY DURATION: 28 WK), Promoter: NONE","100%, 100%, 0%, not calculated"
same,"tumour outcome (control, treated, inhibition, significance)","Carcinogen: 4-(METHYLNITROSAMINO)-1-(3-PYRIDYL)-1-BUTANONE [64091-91-4], BENZO[A]PYRENE [50-32-8], Dose [Inhibitor]: 6 UMOL IN 0.1 ML COTTONSEED OIL 1X/WK FOR 8 WK 2 PRIOR TO EACH CARCINOGEN DOSE (STUDY DURATION: 16 WK), Route [Inhibitor]: GAVAGE, Strain/Sex: A/J/FEMALE, Target Tissue: Type of Lesion: LUNG: TUMOR, Dose [Carcinogen]: 3 UMOL BAP + 3 UMOL NNK IN 0.1 ML COTTONSEED OIL 1X/WK FOR 8 WK (STUDY DURATION: 16 WK), Promoter: NONE","100%, 100%, 0%, not calculated"
same,"tumour outcome (control, treated, inhibition, significance)","Carcinogen: 4-(METHYLNITROSAMINO)-1-(3-PYRIDYL)-1-BUTANONE [64091-91-4], Dose [Inhibitor]: 0.3 UMOL/G IN DIET FOR 10 WK BEGINNING 1 WK PRIOR TO FIRST CARCINOGEN DOSE (STUDY DURATION: 28 WK), Route [Inhibitor]: ORAL, Strain/Sex: A/J/FEMALE, Target Tissue: Type of Lesion: LUNG: TUMOR, Dose [Carcinogen]: 3 UMOL IN 0.1 ML COTTONSEED OIL 1X/WK FOR 8 WK (STUDY DURATION: 28 WK), Promoter: NONE","100%, 100%, 0%, not calculated"
same,"tumour outcome (control, treated, inhibition, significance)","Carcinogen: 4-(METHYLNITROSAMINO)-1-(3-PYRIDYL)-1-BUTANONE [64091-91-4], Dose [Inhibitor]: 1 UMOL/G IN DIET FOR 10 WK BEGINNING 1 WK PRIOR TO FIRST CARCINOGEN DOSE (STUDY DURATION: 28 WK), Route [Inhibitor]: ORAL, Strain/Sex: A/J/FEMALE, Target Tissue: Type of Lesion: LUNG: TUMOR, Dose [Carcinogen]: 3 UMOL IN 0.1 ML COTTONSEED OIL 1X/WK FOR 8 WK (STUDY DURATION: 28 WK), Promoter: NONE","100%, 100%, 0%, not calculated"
same,"tumour outcome (control, treated, inhibition, significance)","Carcinogen: 4-(METHYLNITROSAMINO)-1-(3-PYRIDYL)-1-BUTANONE [64091-91-4], Dose [Inhibitor]: 3 UMOL/G IN DIET FOR 10 WK BEGINNING 1 WK PRIOR TO FIRST CARCINOGEN DOSE (STUDY DURATION: 28 WK), Route [Inhibitor]: ORAL, Strain/Sex: A/J/FEMALE, Target Tissue: Type of Lesion: LUNG: TUMOR, Dose [Carcinogen]: 3 UMOL IN 0.1 ML COTTONSEED OIL 1X/WK FOR 8 WK (STUDY DURATION: 28 WK), Promoter: NONE","100%, 100%, 0%, not calculated"
same,"tumour outcome (control, treated, inhibition, significance)","Carcinogen: 4-(METHYLNITROSAMINO)-1-(3-PYRIDYL)-1-BUTANONE, 64091-91-4, Dose [Inhibitor]: 0, 0.2 UMOL 1/D FOR 4 D ADMINISTERED PRIOR TO CARCINOGEN TREATMENT (STUDY DURATION: 116 D), Route [Inhibitor]: GAVAGE, Strain/Sex: STRAIN A, Target Tissue: Type of Lesion: LUNG ADENOMA, Dose [Carcinogen]: 10 UMOL ONCE 2 HR AFTER FINAL DOSE OF INHIBITOR, Promoter: NONE USED","100%, 100%, 0%, not significant"
same,"tumour outcome (control, treated, inhibition, significance)","Carcinogen: 4-(METHYLNITROSAMINO)-1-(3-PYRIDYL)-1-BUTANONE, 64091-91-4, Dose [Inhibitor]: 0, 0.008% IN DIET FOR 17 WK BEGINNING 1 WK PRIOR TO CARCINOGEN DOSE (STUDY DURATION: 17 WK), Route [Inhibitor]: ORAL, Strain/Sex: STRAIN-A/FEMALE, Target Tissue: Type of Lesion: LUNG: ADENOMA, Dose [Carcinogen]: 10 UMOL IN 0.1 ML SALINE ONCE, Promoter: NONE USED","100%, 96%, 4%, not significant"
same,"tumour outcome (control, treated, inhibition, significance)","Carcinogen: 4-(METHYLNITROSAMINO)-1-(3-PYRIDYL)-1-BUTANONE, 64091-91-4, Dose [Inhibitor]: 0, 1 UMOL 1/D FOR 4 D ADMINISTERED PRIOR TO CARCINOGEN TREATMENT (STUDY DURATION: 116 D), Route [Inhibitor]: GAVAGE, Strain/Sex: STRAIN A, Target Tissue: Type of Lesion: LUNG: ADENOMA, Dose [Carcinogen]: 10 UMOL ONCE, Promoter: NONE USED","100%, 100%, 0%, not significant"
